The source of these data is US4579865A, “Benzofuranyl carbamates” (USV Pharmaceutical Corp., priority 1984, dated 1986).

Assay [1] deals with Canine cardiac lipases. Put plainly: Myocardial lipase assay. The note with it: triolein emulsion, pH 6.8, read-out: Lipase I50. Type of assay: biochemical. The protocol:
All compounds were dissolved in DMSO (final concentration 3.0%) and tested in duplicate at a concentration of 100 μM. Canine cardiac lipases were obtained by extracting washed heart membranes with buffer plus heparin and a small amount of Triton X-100 detergent. Because these enzymes are only active at an oil-water interface, the enzyme reaction is run in an oil-water emulsion that contains triolein substrate, Tris buffer (50 mM, pH 6.8) and a small amount of bovine serum albumin (0.5%) added to stabilize the emulsion. A small amount of tritiated triolein was added to the unlabelled triolein substrate. Tritium-labelled oleic acid released by the lipases was extracted into hexane, separated from unreacted triolein and counted in a scintillation counter. Inhibitory agents reduce the amount of radioactivity appearing in the free fatty acid fraction isolated in the extraction procedure.

The subject of assay [2] is rat adipocyte lipolysis. Briefly: Rat adipocyte assay (epinephrine-stimulated lipolysis, glycerol release). The note with it: rat adipocytes, epinephrine 3 μM plus methylisobutylxanthine 10 μM, 1 hour 37° C., read-out: Adipocyte I50. It is filed as cell-based. How it is done: Abdominal fat pads were removed from male rats weighing 200-250 grams and placed in Krebs-bicarbonate buffer gassed with 95% O2 /5% CO2. The fat pads were digested with collagenase for 1 hour at 37° C., washed twice with Krebs-bicarbonate buffer and distributed among a set of 20 ml plastic counting vials. Two such vials received only buffer and cells (4 ml) but no agonists or antagonists. The remaining vials received epinephrine (3 μM) plus the phosphodiesterase inhibitor methylisobutylxanthine (10 μM). Test compounds were dissolved in DMSO or water to a concentration of […] and 40 μl was added to the buffer plus cells in the counting vials. The final compound concentration for routine screening was 200 μM (final concentration of DMSO=1%).
The cells were incubated for 1 hour at 37° C. under a 95% O2 /5% CO2 atmosphere. The incubation was stopped by placing the vials in crushed ice. The cells and medium were transferred to test tubes, centrifuged and the cell layer removed by aspiration. The aqueous phase was assayed for glycerol using the enzyme glycerol dehydrogenase. The glycerol dihydrogenase assay for glycerol depends on the enzyme catalyzed conversion of glycerol to glyceraldehyde and NAD to NADH. The assay can detect as little as 5-10 nanomoles of glycerol. The aqueous phase, following removal of cells, usually contained about 50 to 80 nanomoles of glycerol per 300 μl of assayed sample if no inhibitory activity was present. Samples from the control tubes (no agonist) usually contained 0-5 nanomoles of glycerol per 300 μl of sample.

The test system of assay [3] is In Vivo Lipolysis. Briefly: In vivo lipolysis assay (serum unesterified fatty acids in fasted rats). Details: species or system rat. To be noted: 2 hours after drug.

pIC50: −log10 of the molar value.

Take `COc1ccc(NC(=O)Oc2cccc3ccoc23)cc1` [Example 1, 7-Benzofuranyl N-(4-methoxyphenyl)carbamate]: the values for the pIC50 in assay [1] and in assay [2] were 4.80 and 6.52, respectively. Moreover, the “In Vivo Lipolysis % Inhib. at mg/Kg” value in assay [3] (25 mg/Kg p.o.) turned out to be 97%.
For the molecule `COc1ccc(NC(=O)Oc2cccc3ccoc23)c(OC)c1` [Example 2, 7-Benzofuranyl N-(2,4-dimethoxy)phenyl carbamate], the pIC50 in assay [1] was 4.40; in assay [2], 6.52. For the same molecule, in assay [3] (100 mg/Kg p.o.), the “In Vivo Lipolysis % Inhib. at mg/Kg” value came to 71%.
As for `O=C(NC1CCCCC1)Oc1cccc2ccoc12` [Example 3, 7-Benzofuranyl N-(cyclohexyl)carbamate], the pIC50 in assay [1] is 5.00; in assay [2], 4.92. Also, the “In Vivo Lipolysis % Inhib. at mg/Kg” value in assay [3] (100 mg/Kg p.o.) was found to be 26%.
Consider `COc1ccc(NC(=O)Oc2cccc3ocnc23)cc1` [Example 4, 4-Benzoxazoyl N-(4-methoxyphenyl)carbanamate], for which the results for the pIC50 in assay [1] and in assay [2] were 4.10 and 5.62, respectively. Moreover, the “In Vivo Lipolysis % Inhib. at mg/Kg” value in assay [3] (100 mg/Kg i.p.) is 40%.
